# Measured values published in US20220281848A1, “PYRAZOLE-SUBSTITUTED PYRROLIDINONES AS HERBICIDES” (FMC Corporation, priority 2019, published 2022).
# Legend:
# Assay type in all cases: in vivo
# [1] = system: ragweed (common ragweed, Ambrosia elatior); experiment: Test C preemergence, ragweed; conditions: 19 to 21 days
# From the text: Seeds of plant species selected from corn (Zea mays), soybean (Glycine max), velvetleaf (Abutilon theophrasti), palmer pigweed (Amaranthus palmeri), waterhemp (common waterhemp, Amaranthus rudis), surinam grass (Brachiaria decumbens), large (Lg) crabgrass (Digitaria sanguinalis), fall panicum (Panicum dichotomiflorum), giant foxtail (Setaria faberi), ragweed (common ragweed, Ambrosia elatior), barnyardgrass (Echinochloa crus-galli), E. Black Nightshade (Solanum ptycanthum), and horseweed (Conyza canadensis), were planted into a silt loam soil and treated preemergence with test chemicals formulated in a non-phytotoxic solvent mixture which included a surfactant.
# Treated plants and controls were maintained in a greenhouse for 19 to 21 days, after which time all species were compared to controls and visually evaluated. Plant response ratings, summarized in Table C, are based on a scale of 0 to 100 where 0 is no effect and 100 is complete control.
# [2] = system: surinam grass (Brachiaria decumbens); experiment: Test B preemergence, surinam grass; conditions: 19 to 21 days
# From the text: Seeds of plant species selected from blackgrass (Alopecurus myosuroides), Italian ryegrass (Lolium multiflorum), wheat, winter (winter wheat, Triticum aestivum), corn (Zea mays), large (Lg) crabgrass (Digitaria sanguinalis), giant foxtail (Setaria faberi), johnsongrass (Sorghum halepense), ragweed (common ragweed, Ambrosia elatior), soybean (Glycine max), barnyardgrass (Echinochloa crus-galli), waterhemp (common waterhemp, Amaranthus rudis), palmer pigweed (Amaranthus palmeri), and surinam grass (Brachiaria decumbens), were planted into a silt loam soil and treated preemergence with test chemicals formulated in a non-phytotoxic solvent mixture which included a surfactant.
# Treated plants and controls were maintained in a greenhouse for 19 to 21 days, after which time all species were compared to controls and visually evaluated. Plant response ratings, summarized in Table B, are based on a scale of 0 to 100 where 0 is no effect and 100 is complete control.
# [3] = system: barnyardgrass (Echinochloa crus-galli, ECHCG); experiment: Test A pre-emergence, barnyardgrass; conditions: after 13 d
# How it was run: (§1)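 Values are percent plant damage 13 d after a pre-emergence spray (15.625, 62.5 or 250 g/ha; acetone/water with 0.5% Tween 20) applied to pots one day post-sowing, under glasshouse conditions of 24/16° C. and twice-daily watering.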
# corn (Zea mays, ZEAMX) = experiment: Test A post-emergence, corn; conditions: after 13 d
# How it was run: (§2)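 Visual damage rating (0 no damage to 100 total damage) was made 13 d after spraying. The spray was 15.625, 62.5 or 250 g/ha in 50:50 acetone/water with 0.5% Tween 20, applied to 8-day-old glasshouse plants kept at 24/16° C, 14 h light and 65% humidity.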
# [4] = system: redroot pigweed (Amaranthus retroflexus, AMARE); experiment: Test A pre-emergence, redroot pigweed; conditions: after 13 d
# How it was run: as §1
# [5] = system: giant foxtail (Setaria faberi, SETFA); experiment: Test A post-emergence, giant foxtail; conditions: after 13 d
# How it was run: as §2
# maize = experiment: Test D pre-emergence, maize seed treated with a herbicide safener; conditions: ZEAMX, preemergent, 20 DAA
# Description: (§3) A formulation containing 50 g/L of the test chemical was prepared by dissolving the active ingredient in a mixture of organic solvents and emulsifier, details of which are provided in the table. This formulation was then mixed with a small, variable amount of acetone to aid dissolution, before addition of a 0.2% v/v aqueous solution of an adjuvant, as the aqueous diluent, to form an aqueous spray solution which contains a predetermined concentration of the active ingredient.
# (§4) This aqueous spray solution was then sprayed onto plants including maize and wheat that had been seed treated with a herbicide safener, after one day's cultivation (for pre-emergence) or after about 12 days' cultivation (for post-emergence). The plants were grown from seeds sown in standard soil, placed in a glasshouse under controlled conditions (at 24/18° C. or 20/16° C., day/night; 16 h light; 65% humidity). After spray application the plants were then grown in a glasshouse under the same conditions and watered twice daily. After 15 d for post-emergence and 20 DAA for pre-emergence the test was evaluated (100=total damage to plant; 0=no damage to plant).
# [6] = system: ivy-leaved morning glory (Ipomoea hederacea, IPOHE); experiment: Test A pre-emergence, ivy-leaved morning glory; conditions: after 13 d
# How it was run: as §1
# wheat = experiment: Test D post-emergence, wheat seed treated with a herbicide safener; conditions: "Cereals" Postemergent
# Description: as §3, §4
# [7] = Rates 130, evaluated after 15 d
# [8] = Rates 250, evaluated after 15 d
# [9] = Rates 500, evaluated after 15 d
Compound,damage to plant (100=total damage; 0=no damage) ECHCG ([3]; Pre-Emergence at 15.625 g/ha),damage to plant (100=total damage; 0=no damage) ECHCG ([3]; Pre-Emergence at 62.5 g/ha),damage to plant (100=total damage; 0=no damage) ECHCG ([3]; Pre-Emergence at 250 g/ha),"damage to plant (100=total damage; 0=no damage) ZEAMX (corn (Zea mays, ZEAMX); Post-Emergence at 15.625 g/ha)","damage to plant (100=total damage; 0=no damage) ZEAMX (corn (Zea mays, ZEAMX); Post-Emergence at 62.5 g/ha)","damage to plant (100=total damage; 0=no damage) ZEAMX (corn (Zea mays, ZEAMX); Post-Emergence at 250 g/ha)",damage to plant (100=total damage; 0=no damage) AMARE ([4]; Pre-Emergence at 15.625 g/ha),damage to plant (100=total damage; 0=no damage) AMARE ([4]; Pre-Emergence at 62.5 g/ha),damage to plant (100=total damage; 0=no damage) AMARE ([4]; Pre-Emergence at 250 g/ha),damage to plant (100=total damage; 0=no damage) SETFA ([5]; Post-Emergence at 15.625 g/ha),damage to plant (100=total damage; 0=no damage) SETFA ([5]; Post-Emergence at 62.5 g/ha),damage to plant (100=total damage; 0=no damage) SETFA ([5]; Post-Emergence at 250 g/ha),"damage to plant (100=total damage to plant; 0=no damage to plant), ZEAMX (maize; rate 15)","damage to plant (100=total damage to plant; 0=no damage to plant), ZEAMX (maize; rate 30)","damage to plant (100=total damage to plant; 0=no damage to plant), ZEAMX (maize; rate 60)","damage to plant (100=total damage to plant; 0=no damage to plant), ZEAMX (maize; rate 130)","damage to plant (100=total damage to plant; 0=no damage to plant), ZEAMX (maize; rate 250)","damage to plant (100=total damage to plant; 0=no damage to plant), ZEAMX (maize; rate 500)",damage to plant (100=total damage; 0=no damage) IPOHE ([6]; Pre-Emergence at 15.625 g/ha),damage to plant (100=total damage; 0=no damage) IPOHE ([6]; Pre-Emergence at 62.5 g/ha),also measured
"CN1C[C@H](c2cc(C(F)(F)F)n(C)n2)[C@@H](C(=O)Nc2cccc(F)c2F)C1=O [Compound 13, (3S,4R)—N-(2,3-difluorophenyl)-1-methyl-4-[1-methyl-5-(trifluoromethyl)-1H-pyrazol-3-yl]-2-oxo-3-pyrrolidinecarboxamide]",,,,,,,,,,,,,,,,,,,,,"Plant response rating (0 no effect, 100 complete control) Ragweed ([1]; 4 g ai/ha Preemergence): 0; Plant response rating (0 no effect, 100 complete control) Ragweed ([1]; 8 g ai/ha Preemergence): 0; Plant response rating (0 no effect, 100 complete control) Ragweed ([1]; 16 g ai/ha Preemergence): 0; Plant response rating (0 no effect, 100 complete control) Ragweed ([1]; 31 g ai/ha Preemergence): 0; Plant response rating (0 no effect, 100 complete control) Ragweed ([1]; 62 g ai/ha Preemergence): 0; Plant response rating (0 no effect, 100 complete control) Ragweed ([1]; 125 g ai/ha Preemergence): 0; Plant response rating (0 no effect, 100 complete control) Surinam Grass ([2]; 16 g ai/ha Preemergence): 65; Plant response rating (0 no effect, 100 complete control) Surinam Grass ([2]; 31 g ai/ha Preemergence): 78; Plant response rating (0 no effect, 100 complete control) Surinam Grass ([2]; 62 g ai/ha Preemergence): 95; Plant response rating (0 no effect, 100 complete control) Surinam Grass ([2]; 125 g ai/ha Preemergence): 93"
CN1CC(c2cc(C(F)(F)F)n(C)n2)C(C(=O)Nc2cccc(F)n2)C1=O (racemic) [Compound 24],90,100,100,0,10,40,0,0,0,20,70,80,0,0,0,0,0,0,0,0,damage to plant (100=total damage; 0=no damage) IPOHE ([6]; Pre-Emergence at 250 g/ha): 40; TRZAW damage rating (100=total damage to plant; 0=no damage to plant) (wheat; [7]): 0; TRZAW damage rating (100=total damage to plant; 0=no damage to plant) (wheat; [8]): 0; TRZAW damage rating (100=total damage to plant; 0=no damage to plant) (wheat; [9]): 0
CN1C[C@H](c2nn(C)c3c(F)cccc23)[C@@H](C(=O)Nc2cccc(F)c2F)C1=O [Compound 2],90,90,90,10,0,40,10,0,0,0,70,80,0,0,0,0,0,10,0,0,damage to plant (100=total damage; 0=no damage) IPOHE ([6]; Pre-Emergence at 250 g/ha): 0; TRZAW damage rating (100=total damage to plant; 0=no damage to plant) (wheat; [7]): 20; TRZAW damage rating (100=total damage to plant; 0=no damage to plant) (wheat; [8]): 20; TRZAW damage rating (100=total damage to plant; 0=no damage to plant) (wheat; [9]): 60
CN1CC(c2cc(C(F)(F)F)n(C)n2)C(C(=O)Nc2ccc(F)nc2F)C1=O (racemic) [Compound 22],70,90,90,20,40,80,0,10,20,50,70,80,0,0,0,0,0,0,0,0,damage to plant (100=total damage; 0=no damage) IPOHE ([6]; Pre-Emergence at 250 g/ha): 0; TRZAW damage rating (100=total damage to plant; 0=no damage to plant) (wheat; [7]): 0; TRZAW damage rating (100=total damage to plant; 0=no damage to plant) (wheat; [8]): 0; TRZAW damage rating (100=total damage to plant; 0=no damage to plant) (wheat; [9]): 10
CN1CC(c2cc(C(F)(F)F)n(C)n2)C(C(=O)Nc2cccc(F)c2F)C1=O (racemic) [Compound 3],100,100,100,0,50,80,20,20,70,80,90,90,0,0,0,0,0,0,0,0,damage to plant (100=total damage; 0=no damage) IPOHE ([6]; Pre-Emergence at 250 g/ha): 30; TRZAW damage rating (100=total damage to plant; 0=no damage to plant) (wheat; [7]): 0; TRZAW damage rating (100=total damage to plant; 0=no damage to plant) (wheat; [8]): 0; TRZAW damage rating (100=total damage to plant; 0=no damage to plant) (wheat; [9]): 50
